Structures are written as SMILES.

Common to all, as to format: cell-based
The subject of assay [1] is SH-SY5Y (human neuroblastoma) cells. Put plainly: Cell viability, Cell Titer Glo 2.0 assay. Particulars: read-out: Viability SHSY5Y.3 GI50. In short, it runs like this: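 CellTiter-Glo 2.0 luminescence read-out after 72 h compound exposure (37 °C, 5% CO2); medium-only wells as blank. DMSO 0.1% final.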
In assay [2] the test system is MYB mRNA. Put plainly: Gene panel canonical junction qPCR assay, decrease in CJ mRNA, Table 3. To be noted: decrease in canonical junction (CJ) mRNA, gene panel qPCR, Table 3. In a few lines:
(§1)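 Cells: A673 or K562; 24 h compound exposure, 37 °C, 5% CO2; 11-pt 3-fold series from 10 uM final; DMSO ≤0.25%. Lysate → cDNA → qPCR with junction-spanning primers/probe for CJ transcript. ΔCt vs housekeeper, ΔΔCt vs DMSO, 2^(−ΔΔCt), % response, 4PL → IC50.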

Assay [3] relates to SMN2 mRNA. Described as above. To be noted: decrease in canonical junction (CJ) mRNA, gene panel qPCR, Table 3. In a few lines:
as §1
For orientation: In qPCR the cycle at which signal appears reflects the starting amount.

The subject of assay [4] is HTT mRNA. Described as above. Particulars: decrease in canonical junction (CJ) mRNA, gene panel qPCR, Table 3. In a few lines:
as §1

Assay [5] has as its system HTT mRNA. Put plainly: Splicing RT-qPCR assay (THP), Table 2A. Particulars: Table 2A (THP); for AC50: AJ mRNA increase, read-out: HTT AJ (increase in alternative junction mRNA, AC50); for IC50: CJ mRNA decrease, read-out: HTT CJ (decrease in canonical junction mRNA, IC50).
For assay [6], the system named is MYB mRNA. The experiment in a line: Splicing RT-qPCR assay (THP), Table 2A. To be noted: Table 2A (THP); for AC50: AJ mRNA increase, read-out: MYB AJ (increase in alternative junction mRNA, AC50); for IC50: CJ mRNA decrease, read-out: MYB CJ (decrease in canonical junction mRNA, IC50).

As for `Cc1cn2cc(NC(=O)c3ccc(N4CCNC(C(F)(F)F)C4)c4cn(C)nc34)cc(F)c2n1` (stereo not drawn) [Compound 248, N-(8-fluoro-2-methyl-imidazo[1,2-a]-pyridin-6-yl)-2-methyl-4-[3-(trifluoro-methyl)piperazin-1-yl]indazole-7-carboxamide], the GI50 (in general, the concentration at which growth is held to half of that of the control) in assay [1] is over 10000 nM. For the same compound, the IC50 (in general, the concentration at which inhibition is half-maximal) is 1000 to 10000 nM in assay [2]; 100 to 1000 nM in assay [3]; over 10000 nM in assay [4]; over 10000 nM in assay [5]; over 10000 nM in assay [6]. For the same compound, the AC50 (as a rule, the midpoint of the concentration-response curve, whichever way the signal moves) is over 10000 nM in assay [5] and 1000 to 10000 nM in assay [6].

With `Cc1cn2cc(NC(=O)c3ccc(N4CCNC(C(F)F)C4)c4cn(C)nc34)cc(F)c2n1` (stereo not drawn) [Compound 249, 4-[3-(difluoromethyl)piperazin-1-yl]-N-(8-fluoro-2-methylimidazo[1,2-a]pyridin-6-yl)-2-methyl-indazole-7-carboxamide], in assay [1], the GI50 was in the range of 1000 to 10000 nM. For the same compound, the concentration for half-maximal inhibition (IC50) in assay [2] is 100 to 1000 nM; in assay [3], under 100 nM; in assay [4], 1000 to 10000 nM; in assay [5], 1000 to 10000 nM; in assay [6], 100 to 1000 nM. The results for the AC50 in assay [5] and in assay [6] were over 10000 nM and 100 to 1000 nM, respectively.

For the compound `COc1cc(N2CCNCC2)c2cn(C)nc2c1C(=O)Nc1cc(F)c2nc(C)cn2c1` [Compound 250, N-(8-fluoro-2-methyl-imidazo[1,2-a]pyridin-6-yl)-6-methoxy-2-methyl-4-piperazin-1-yl-indazole-7-carboxamide], in assay [1], the GI50 was over 10000 nM. Besides, the IC50 in assay [2] was over 10000 nM; in assay [3], 1000 to 10000 nM; in assay [4] it was over 10000 nM; in assay [5], over 10000 nM; in assay [6], 1000 to 10000 nM. Besides, the results for the AC50 in assay [5] and in assay [6] were over 10000 nM and 1000 to 10000 nM, respectively.

Consider `Cc1cn2cc(NC(=O)c3ccc(N4CCNCC4=O)c4cn(C)nc34)cc(F)c2n1` [Compound 251, N-(8-fluoro-2-methylimidazo[1,2-a]-pyridin-6-yl)-2-methyl-4-(2-oxopiperazin-1-yl)-2H-indazole-7-carboxamide 2,2,2-trifluoroacetate], for which the 50% growth inhibitory concentration (GI50) in assay [1] was over 10000 nM. The IC50 was over 10000 nM in assay [2]; 1000 to 10000 nM in assay [3]; over 10000 nM in assay [4]; over 10000 nM in assay [5]; over 10000 nM in assay [6]. For the same compound, the AC50 in assay [5] and in assay [6] was over 10000 nM each time.

In the case of `Cc1cn2cc(NC(=O)c3ccc(N4C[C@@H](C)N[C@@H](C)C4)c4nn(C)nc34)cc(F)c2n1` [Compound 252, 7-((3S,5R)-3,5-dimethyl-piperazin-1-yl)-N-(8-fluoro-2-methyl-imidazo[1,2-a]pyridin-6-yl)-2-methyl-2H-benzo[d][1,2,3]triazole-4-carboxamide 2,2,2-trifluoroacetate], the 50% growth inhibitory concentration (GI50) in assay [1] is 1000 to 10000 nM. For the same compound, the IC50 in assay [2] was 100 to 1000 nM; in assay [3], under 100 nM; in assay [4], 100 to 1000 nM; in assay [5], 100 to 1000 nM; in assay [6], 100 to 1000 nM. In addition, the values for the AC50 in assay [5] and in assay [6] were 1000 to 10000 nM and 100 to 1000 nM, respectively.

Regarding `Cc1cn2cc(NC(=O)c3ccc(N4CCNCC4=O)c4[nH]cnc34)cc(F)c2n1` [Compound 257, N-(8-fluoro-2-methyl-imidazo[1,2-a]-pyridin-6-yl)-7-(2-oxopiperazin-1-yl)-1H-benzimidazole-4-carboxamide], in assay [1], the GI50 was over 10000 nM. The half-inhibitory concentration (IC50) in assay [2] was over 10000 nM; in assay [3], 1000 to 10000 nM; in assay [4] it was over 10000 nM; in assay [5], over 10000 nM; in assay [6], over 10000 nM. For the same compound, the half-maximal activity concentration (AC50) in assay [5] and in assay [6] was over 10000 nM in each case.

In the case of `Cc1cn2cc(NC(=O)c3ccc(N4C[C@@H](C)N[C@@H](C)C4)c4nnn(C)c34)cc(F)c2n1` [Compound 261, 7-[(3R,5S)-3,5-dimethylpiperazin-1-yl]-N-(8-fluoro-2-methyl-imidazo[1,2-a]pyridin-6-yl)-3-methyl-benzotriazole-4-carboxamide], the concentration for 50% growth inhibition (GI50) in assay [1] was over 10000 nM. Also, the concentration for half-maximal inhibition (IC50) in assay [2], in assay [3], in assay [4], in assay [5] and in assay [6] was over 10000 nM in each case. The concentration at half-maximal activity (AC50) in assay [5] and in assay [6] was over 10000 nM throughout.

For the compound `CO[C@H]1C[C@H](N[C@H]2CCN(c3ccc(C(=O)Nc4cc(F)c5nc(C)cn5c4)c4nn(C)cc34)C2)C1` [Compound 275, N-(8-fluoro-2-methylimidazo[1,2-a]pyridin-6-yl)-4-((S)-3-(((1r,3S)-3-methoxycyclobutyl)amino)pyrrolidin-1-yl)-2-methyl-2H-indazole-7-carboxamide], the GI50 in assay [1] is 1000 to 10000 nM. Further, the 50% inhibitory concentration (IC50) in assay [2] is 100 to 1000 nM; in assay [3] it was under 100 nM; in assay [4] it was 1000 to 10000 nM; in assay [5], 1000 to 10000 nM; in assay [6], 100 to 1000 nM. In addition, the values for the AC50 in assay [5] and in assay [6] were 1000 to 10000 nM and 100 to 1000 nM, respectively.

As to `CO[C@H]1C[C@@H](N[C@H]2CCN(c3ccc(C(=O)Nc4cc(F)c5nc(C)cn5c4)c4nn(C)cc34)C2)C1` [Compound 277, N-(8-fluoro-2-methylimidazo[1,2-a]pyridin-6-yl)-4-((S)-3-(((1s,3R)-3-methoxy-cyclobutyl)amino)pyrrolidin-1-yl)-2-methyl-2H-indazole-7-carboxamide], in assay [1], the GI50 fell in the range of 1000 to 10000 nM. The IC50 in assay [2] was 100 to 1000 nM; in assay [3], under 100 nM; in assay [4], 1000 to 10000 nM; in assay [5] it was 1000 to 10000 nM; in assay [6] it was 100 to 1000 nM. Also, the half-maximal activity concentration (AC50) in assay [5] is 1000 to 10000 nM; in assay [6], 100 to 1000 nM.

Take `Cc1cn2cc(NS(=O)(=O)c3ccc(N4C[C@@H](C)N[C@@H](C)C4)c4cn(C)nc34)cc(F)c2n1` [Compound 279]: the GI50 in assay [1] was over 10000 nM. Further, the IC50 in assay [2], in assay [3], in assay [4], in assay [5] and in assay [6] was over 10000 nM each time. In addition, the AC50 in assay [5] and in assay [6] was over 10000 nM in each case.

`CCNC1CCN(c2ccc(C(=O)Nc3cc(F)c4nc(COC)cn4c3)c3nn(C)cc23)CC1` [Compound 284, 4-[4-(ethylamino)-1-piperidyl]-N-[8-fluoro-2-(methoxymethyl)imidazo[1,2-a]pyridin-6-yl]-2-methyl-indazole-7-carboxamide]: the GI50 in assay [1] is over 10000 nM. Moreover, the half-inhibitory concentration (IC50) in assay [2] is 1000 to 10000 nM; in assay [3] it was 100 to 1000 nM; in assay [4], 1000 to 10000 nM; in assay [5], over 10000 nM; in assay [6], over 10000 nM. For the same compound, the concentration at half-maximal activity (AC50) in assay [5] is over 10000 nM; in assay [6], 1000 to 10000 nM.

In the case of `COCCN[C@@H]1CCN(c2cc(O)c(C(=O)Nc3cc(F)c4nc(C)cn4c3)c3nn(C)cc23)C1` [Compound 285, N-(8-fluoro-2-methyl-imidazo[1,2-a]pyridin-6-yl)-6-hydroxy-4-[(3R)-3-(2-methoxyethylamino)pyrrolidin-1-yl]-2-methyl-indazole-7-carboxamide], the GI50 in assay [1] lay within 1000 to 10000 nM. The IC50 in assay [2] is under 100 nM; in assay [3] it was under 100 nM; in assay [4] it was over 10000 nM; in assay [5], over 10000 nM; in assay [6], under 100 nM. The AC50 was over 10000 nM in assay [5] and under 100 nM in assay [6].

On to `Cc1cn2cc(NC(=O)c3c(O)cc(N4CC[C@@H](NC5CC5)C4)c4cn(C)nc34)cc(F)c2n1` [Compound 288, 4-[(3R)-3-(cyclopropylamino)-pyr-rolidin-1-yl]-N-(8-fluoro-2-methyl-imidazo[1,2-a]pyridin-6-yl)-6-hydroxy-2-methyl-indazole-7-carboxamide], for which, in assay [1], the GI50 is 100 to 1000 nM. Besides, the IC50 in assay [2] was under 100 nM; in assay [3], under 100 nM; in assay [4], over 10000 nM; in assay [5], over 10000 nM; in assay [6] it was under 100 nM. The half-maximal activity concentration (AC50) in assay [5] is over 10000 nM; in assay [6], under 100 nM.

As for `Cn1cc2cc(NC(=O)c3c(O)cc(N4CC[C@@H](NC5CC5)C4)c4cn(C)nc34)cc(F)c2n1` [Compound 291, 4-[(3R)-3-(cyclopropylamino)pyrrolidin-1-yl]-N-(7-fluoro-2-methyl-indazol-5-yl)-6-hydroxy-2-methyl-indazole-7-carboxamide], the GI50 in assay [1] lay in the range of 100 to 1000 nM. The 50% inhibitory concentration (IC50) in assay [2] is under 100 nM; in assay [3], under 100 nM; in assay [4], 1000 to 10000 nM; in assay [5] it was over 10000 nM; in assay [6], under 100 nM. The AC50 is 1000 to 10000 nM in assay [5] and under 100 nM in assay [6].

As to `CCN[C@@H]1CCN(c2cc(O)c(C(=O)Nc3cc(F)c4nn(C)cc4c3)c3nn(C)cc23)C1` [Compound 294, 4-[(3R)-3-(ethylamino)-pyrrolidin-1-yl]-N-(7-fluoro-2-methyl-indazol-5-yl)-6-hydroxy-2-methyl-indazole-7-carboxamide], in assay [1], the 50% growth inhibitory concentration (GI50) is 100 to 1000 nM. Besides, the concentration for half-maximal inhibition (IC50) in assay [2] was under 100 nM; in assay [3] it was under 100 nM; in assay [4], 100 to 1000 nM; in assay [5] it was 1000 to 10000 nM; in assay [6], under 100 nM. Besides, the AC50 was 1000 to 10000 nM in assay [5] and under 100 nM in assay [6].

(Values after patent US20260285853A1, “COMPOUNDS AND METHODS FOR MODULATING SPLICING” (REMIX THERAPEUTICS INC., priority 2023, published 2026).)
